Results as given in paper PMC5479848, “Drug-Repositioning Screening for Keap1-Nrf2 Binding Inhibitors using Fluorescence Correlation Spectroscopy” (Scientific Reports, 2017).

How the values were obtained:
Keap1 = target: T1, Keap1 (Homo sapiens, UniProt Q14145); experiment: FCS displacement of TAMRA-Nrf2 ETGE peptide from purified GST-Keap1-DGR; supported by co-IP; type: binding
T1 construct: GST-Keap1-DGR, residues 315–598 (DGR domain)

[1] = target: Nrf2 8mer peptide (Homo sapiens); experiment: SPR; conditions: cited from earlier work
[2] = target: Nrf2 9mer peptide, FITC-labeled (Homo sapiens) (UniProt Q16236); experiment: FP; conditions: cited from earlier work
Sequence of Nrf2 9mer peptide, FITC-labeled (Homo sapiens) (Q16236 whole entry): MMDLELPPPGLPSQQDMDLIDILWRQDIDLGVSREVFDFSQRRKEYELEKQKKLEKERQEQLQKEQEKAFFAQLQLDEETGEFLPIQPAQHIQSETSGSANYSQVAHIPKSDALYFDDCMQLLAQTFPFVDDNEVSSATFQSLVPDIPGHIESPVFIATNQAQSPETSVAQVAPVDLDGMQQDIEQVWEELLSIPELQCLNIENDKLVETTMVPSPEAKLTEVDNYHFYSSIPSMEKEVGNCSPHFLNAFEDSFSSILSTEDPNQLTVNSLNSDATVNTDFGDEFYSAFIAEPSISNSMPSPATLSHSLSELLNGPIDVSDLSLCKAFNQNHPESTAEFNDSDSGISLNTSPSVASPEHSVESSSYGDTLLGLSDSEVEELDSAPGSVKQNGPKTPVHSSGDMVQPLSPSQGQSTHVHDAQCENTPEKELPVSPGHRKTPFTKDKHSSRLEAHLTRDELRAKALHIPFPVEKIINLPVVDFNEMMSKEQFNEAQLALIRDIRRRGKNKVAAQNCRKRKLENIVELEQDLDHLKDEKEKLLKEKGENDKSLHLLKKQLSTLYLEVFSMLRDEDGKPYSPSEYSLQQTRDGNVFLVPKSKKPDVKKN

T1 sequence (Q14145 315-598): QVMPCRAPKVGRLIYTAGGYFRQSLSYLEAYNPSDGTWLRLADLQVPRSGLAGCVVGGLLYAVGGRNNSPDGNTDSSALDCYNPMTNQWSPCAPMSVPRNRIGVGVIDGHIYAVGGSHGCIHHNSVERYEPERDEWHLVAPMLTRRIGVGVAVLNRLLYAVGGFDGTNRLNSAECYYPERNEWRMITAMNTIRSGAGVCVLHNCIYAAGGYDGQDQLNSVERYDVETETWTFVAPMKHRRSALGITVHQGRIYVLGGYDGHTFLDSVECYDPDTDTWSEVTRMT
Sequence of Keap1 (from UniProt Q14145) (Q14145 whole entry): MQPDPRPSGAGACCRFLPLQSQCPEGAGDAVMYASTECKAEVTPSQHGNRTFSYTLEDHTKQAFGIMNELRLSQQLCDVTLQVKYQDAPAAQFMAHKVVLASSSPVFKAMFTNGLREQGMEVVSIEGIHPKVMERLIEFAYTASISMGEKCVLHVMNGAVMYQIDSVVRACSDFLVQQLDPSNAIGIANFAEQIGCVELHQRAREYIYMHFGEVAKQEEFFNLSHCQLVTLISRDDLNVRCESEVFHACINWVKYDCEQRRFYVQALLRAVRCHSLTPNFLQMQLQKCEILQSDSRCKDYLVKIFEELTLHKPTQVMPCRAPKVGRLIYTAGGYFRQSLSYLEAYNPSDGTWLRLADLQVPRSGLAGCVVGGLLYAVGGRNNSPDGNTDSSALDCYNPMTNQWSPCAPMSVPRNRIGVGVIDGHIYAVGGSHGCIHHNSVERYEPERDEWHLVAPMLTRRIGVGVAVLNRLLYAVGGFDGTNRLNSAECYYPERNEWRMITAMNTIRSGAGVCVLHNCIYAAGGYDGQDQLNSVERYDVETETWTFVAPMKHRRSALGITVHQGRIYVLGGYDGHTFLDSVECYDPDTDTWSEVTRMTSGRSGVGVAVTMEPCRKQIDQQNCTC

Compound | IC50 (Keap1) [µM] | Kd [1] [µM] | Kd [2] [µM]
O=C1C=Cc2cc(Br)ccc2C1=O [bonaphton, 6-bromo-1,2-naphthoquinone] | 37.9 | – | –
Keap1 (from UniProt Q14145) | – | > 1 | 0.0651
chlorophyllin sodium copper salt | 35.7 | – | –
